Structures can show the parent of a compound that is named as a salt.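 The compound was tested at five concentrations on cells cultured in 96-well plates, with a 48-hour exposure period. GI50 marks 50% less growth.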 Calls of active or inactive are those of the source. Cut-off read from the data, not from the text of the source: active = GI50 up to about 1.1 µM and inactive = higher.
How the values were obtained:
Experiment in all cases: inhibition of tumour cell growth, NCI panel, 48 h
SNB-19 = test system: SNB-19
SK-OV-3 = test system: SK-OV-3
HOP-62 = test system: HOP-62
SN12C = test system: SN12C
IGROV-1 = test system: IGROV-1
M14 = test system: M14
UO-31 = test system: UO-31
MDA-MB-231 = test system: MDA-MB-231
K562 = test system: K562
TK-10 = test system: TK-10
KM12 = test system: KM12
PC-3 = test system: PC-3
LOX IMVI = test system: LOX IMVI
786-0 = test system: 786-0
Hs-578T = test system: Hs-578T
MOLT-4 = test system: MOLT-4
T47D = test system: T47D
NCI-H522 = test system: NCI-H522
SNB-75 = test system: SNB-75
SK-MEL-28 = test system: SK-MEL-28

Measured: GI50

CN(C)Cc1cc(/N=N/c2ccccc2Cl)ccc1O
inactive: SNB-19 32.2 µM | SK-OV-3 39.2 µM | HOP-62 10.7 µM | SN12C 25.6 µM | IGROV-1 25.8 µM | M14 19.3 µM | UO-31 12.9 µM | MDA-MB-231 18.2 µM | K562 16.7 µM | TK-10 22.1 µM | KM12 25.9 µM | PC-3 27.5 µM | LOX IMVI 12.6 µM | 786-0 15.5 µM | Hs-578T 16.7 µM | MOLT-4 5.48 µM | T47D 17.7 µM | NCI-H522 10.6 µM | SNB-75 18.7 µM | SK-MEL-28 16.9 µM

CCN(CC)CCNc1ccc(C)c2sc3ccccc3c(=O)c12 [LUCANTHONE HYDROCHLORIDE]
inactive: SNB-19 2.54 µM | SK-OV-3 6.71 µM | HOP-62 6.5 µM | SN12C 2.67 µM | IGROV-1 5.42 µM | M14 1.75 µM | UO-31 1.57 µM | MDA-MB-231 2.85 µM | K562 1.97 µM | TK-10 3.72 µM | KM12 3.09 µM | PC-3 2.03 µM | LOX IMVI 1.49 µM | 786-0 3.02 µM | Hs-578T 2.15 µM | MOLT-4 1.27 µM | T47D 7.08 µM | NCI-H522 2.31 µM | SNB-75 2.06 µM | SK-MEL-28 1.82 µM
